Source: patent US20210348164A1, “ENDOGENOUS CYTOPLASMIC ALU COMPLEMENTARY DNA IN AGE-RELATED MACULAR DEGENERATION” (University of Virginia Patent Foundation, priority 2018, published 2021)
Entries after “also recorded” stand apart in the source; their conditions may differ.

Columns and labels:
[1] = system: Alu cDNA in ARPE-19 cells; test: Alu cDNA in ARPE-19 cells (Alu c-PCR, in situ hybridization); assay type: cell-based, human; settings: heat shock or DICER1 AS, in situ hybridization
Description: Cell culture and transfection. Primary mouse and human RPE cells were isolated as previously described (Kerur et al., 2018). All cells were maintained at 37° C. in a 5% CO2 environment. Mouse RPE cells were cultured in DMEM supplemented with 20% FBS and penicillin/streptomycin antibiotics at standard concentrations; primary human RPE cells were maintained in DMEM supplemented with 10% FBS and antibiotics. The human RPE cell line ARPE19 was cultured as previously described (Kerur et al., 2018) and maintained in DMEM-F12 containing penicillin/streptomycin, Fungizone, and gentamicin. HEK293T cells were cultured in DMEM with 10% fetal bovine serum (FBS) with 100 U/ml penicillin/streptomycin and 2 mM L-glutamine. […]
In situ hybridization. […] Visualization of fluorescein-labelled probe was performed with the TSA™ plus fluorescence system or the TSA™ plus Cy5 system (PerkinElmer). The fluorescent or Cy5 signals were detected using a Leica SP-5 or MR Nikon confocal microscope system. […]

[2] = system: reverse transcriptase activity of cytoplasmic fractions of F9 cells; test: In vitro reverse transcriptase activity of cytoplasmic fractions (Alu RNA-templated, Alu-specific qPCR); assay type: biochemical, mouse
Description: In vitro reverse transcriptase (RT) activity. In vitro reverse transcriptase (RT) activity in nuclear and cytoplasmic protein fractions was assessed using an Alu RNA-templated reaction. The RT reaction was carried out in a 20 μl reaction mix containing Alu RNA template (10 ng); Alu primer ([…]); dNTPs mix; cytoplasmic or nuclear protein, and Quantiscript RT Buffer (Qiagen). The reaction mixture was incubated at 42° C. for 30 minutes. The resulting cDNA was quantified by qPCR using Alu RNA template-specific primers. The reaction to evaluate self-priming activity of Alu RNA was carried out in the absence of priming oligos in a 20 μl reaction mix containing: Alu RNA with 3′-U tail; dNTP mix; cytoplasmic protein from mouse RPE cells; and Quantiscript RT Buffer (Qiagen) as described above. The resulting cDNA product was quantified by qPCR using Alu RNA template-specific primers. Alu RNA tailed on the 3′ end with chain terminator dideoxy thymidine base (ddTTP) was generated using TdT (New England Biolabs (NEB)) according to the manufacturer's instructions. Alu RNA tailed on the 3′ end with chain terminator cordycepin tri-phosphate was generated using PAP (NEB) according to the manufacturer's instructions.

L1 siRNA: siRNA targeting L1; cholesterol-conjugated mouse L1 siRNA (SEQ ID NOs: 48 and 49) in vivo, human L1 siRNA sequences in human cells (chain 1 ACUAUUACUCUGAUACCTT; chain 2 UGUACUAAGGUCAAAUCTT; cholesterol conjugated, position not given here)
Alu cDNA induction [1]: reduced Alu cDNA formation | Alu cDNA formation from Alu RNA (reverse transcriptase activity) [2]: reduced Alu cDNA production; also recorded: reduced Alu cDNA formation
